In patent publication US5948884A, “Cyclosporin derivatives with anti-HIV effect” (priority 1995, dated 1999):
Converted amounts (≈) assume the structure as drawn.

Tests used:
HIV-1 (strain IIIB) = conditions: MT4 cells infected with HIV-1 IIIB; p24 ELISA on third and fourth days after infection
Experimental: Test for Antiviral Activity
HIV-1 (strain IIIB) was adsorbed on the cells for 2 hours at 37°. The inoculum was then removed and the infected cells were transferred to tissue culture plates which contained the test compound at different concentrations. In this context, the virus inoculum was chosen such that the concentration of viral p24 antigen increased exponentially in the cell supernatant up to the fourth day after the infection. On the third and fourth days after the infection, the cell supernatants were analyzed by ELISA for p24 antigen. IC50 values were determined by comparing the p24 concentrations in the supernatant from the infected, substance-treated cells and in the supernatant from the untreated infected control cells.

HIV = conditions: relative to the most strongly active substances of EP 484 281; cited from earlier work

| Molecule | IC50 (p24 antigen in cell supernatant) (HIV-1 (strain IIIB)) | activity against HIV, times weaker than MeIle-4-cyclosporin or MeVal-4-cyclosporin (HIV) |
| --- | --- | --- |
| C/C=C/C[C@@H](C)[C@@H](O)[C@H]1C(=O)N[C@@H](CC)C(=O)N(C)[C@H](CO)C(=O)N(C)[C@@H](CC(C)(C)O)C(=O)N[C@@H](C(C)C)C(=O)N(C)[C@@H](CC(C)C)C(=O)N[C@@H](C)C(=O)N[C@H](C)C(=O)N(C)[C@@H](CC(C)C)C(=O)N(C)[C@@H](CC(C)C)C(=O)N(C)[C@@H](C(C)C)C(=O)N1C [3-N-methyl-(D)-serine-4-(gamma-hydroxy)-N-methylleucinecyclosporin] | 0.1 µg/mL (≈ 0.0801 µM) |  |
| (gamma-hydroxy-N-methylleucine)cyclosporin |  | 5-6 times |
